Laboratory results as given in PubChem BioAssay (NCI).
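Assay format: 96-well plates, 48-hour exposure. TGI: concentration producing complete growth inhibition.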

Tests used:
Test in all cases: NCI-60 cell line screen, 48 h
NCI-H226 lung = tested on: NCI-H226 lung
UO-31 renal = tested on: UO-31 renal
OVCAR-5 ovarian = tested on: OVCAR-5 ovarian
HCT-15 colon = tested on: HCT-15 colon
MOLT-4 leukemia = tested on: MOLT-4 leukemia
SF-268 CNS = tested on: SF-268 CNS
HOP-62 NSCLC = tested on: HOP-62 NSCLC
NCI-H23 lung = tested on: NCI-H23 lung
HCC-2998 colon = tested on: HCC-2998 colon
SK-MEL-5 melanoma = tested on: SK-MEL-5 melanoma
NCI-H460 lung = tested on: NCI-H460 lung
MDA-N = tested on: MDA-N

Row | Compound | TGI (NCI-H226 lung) [µM] | TGI (UO-31 renal) [µM] | TGI (OVCAR-5 ovarian) [µM] | TGI (HCT-15 colon) [µM] | TGI (MOLT-4 leukemia) [µM] | TGI (SF-268 CNS) [µM] | TGI (HOP-62 NSCLC) [µM] | TGI (NCI-H23 lung) [µM] | TGI (HCC-2998 colon) [µM] | TGI (SK-MEL-5 melanoma) [µM] | TGI (NCI-H460 lung) [µM] | TGI (MDA-N) [µM]
1 | ClCc1ccc2ccc3ccc(CCl)nc3c2n1 | 9.91 | 3.21 | 7.82 | 4.69 | 4.02 | 55 | 15.4 | 7.88 | 8.59 | 3.13 | 19.6 | 
2 | CCOC(=O)C(=CNC(=S)Nc1c(CC)cccc1CC)C(=O)OCC | > 100 | > 100 | > 100 |  | > 100 | > 100 | > 100 | > 100 | > 100 | > 100 | > 100 | > 100
3 | CC1SC(=O)SC1C (stereo not drawn) |  | > 100 | > 100 | > 100 | > 100 | > 100 | > 100 |  | > 100 | > 100 | > 100 | > 100
4 | O=C(Cc1ccccc1)NNc1nc(NNC(=O)c2ccncc2)nc(Nc2ccc(Cl)cc2)n1 |  | > 10 |  | > 10 | > 10 | > 10 | > 10 | > 10 | > 10 | > 10 |  | > 10
5 | [C-]#[N+]C1(C(=O)OCC)CC1 | > 100 |  | > 100 | > 100 | > 100 | > 100 | > 100 | > 100 | > 100 | > 100 | > 100 | > 100
6 | O=C1c2c(nc3ccccc3c2-c2ccccc2)CN1Nc1ccccc1 | > 100 | > 100 | > 100 |  | > 100 | > 100 | > 100 |  | > 100 | > 100 |  | 
7 | C/C(=N\O)C(CN1CCCCC1)C(c1ccccc1)c1c(O)c2ccccc2oc1=O (stereo not drawn) | > 100 |  | > 100 |  |  | > 100 | > 100 | > 100 | > 100 | > 100 |  | 
8 | N#CN1CCC=C(c2cc3ccccc3[nH]2)C1 | > 448 |  | > 448 | > 448 | > 448 | > 448 | > 448 | > 448 | > 448 | > 448 | > 448 | 
9 | Cc1ccc(S(=O)(=O)c2c3[nH]c4ccccc4nc3n3c2nc2ccccc23)cc1 |  | > 100 | > 100 | > 100 | > 100 | > 100 | > 100 | > 100 | > 100 | > 100 | > 100 | 
10 | CC1=NN(C(=O)c2ccc(Cl)cc2)C(=O)/C1=C/c1ccc(O)cc1 | > 100 | > 100 | > 100 | > 100 | > 100 | > 100 | > 100 | > 100 | > 100 | > 100 | > 100 | 
